Assays:
[1] = tested on: tau protein; conditions: cited from earlier work
[2] = tested on: hyperphosphorylated tau-expressing mice; conditions: administered to hyperphosphorylated tau-expressing mice; cited from earlier work
[3] = Stability of isolated [11C]isoproterenol solution, radiochemical purity by HPLC; assay type: physicochemical
Method: Radiochemical purity and chemical purity of [2-^11C] isoproterenol in the solution after HPLC fractionation were analyzed by HPLC (CH3CN/acetic acid-ammonium acetate (pH 5.3), 10:90; column, CAPCELL PAK SCX UG 80, 4.6 (id)×150 mm; flow rate, 1 mL/min; UV detection, 278 nm; retention time, 6.5 min). [^11C] isoproterenol was confirmed by co-injection of unlabeled isoproterenol in HPLC. In the absence of addition of tartaric acid, the radiochemical purity immediately after isolation was 96%, whereas the radiochemical purity after 60 minutes dropped to 84% (see FIG. 3). […] This is presumed to be due to inhibition of deprotonation of two adjacent phenolic hydroxyl groups present in the catechol nucleus under acidic conditions and suppression of subsequent oxidative decomposition by oxygen molecules or superoxide. Also, the chemical purity measured at the above wavelength was >93%

Structure (SMILES): CC(C)NCC(O)c1ccc(O)c(O)c1 [D/L-isoproterenol]
- inhibition of aggregation of tau protein [1]: particularly strongly suppresses aggregation of tau protein
- abnormal behavior [2]: improvement of abnormal behavior
- aggregation of tau protein [2]: suppression of aggregation of tau protein
- nerve cell dropout [2]: suppression of nerve cell dropout

Structure (SMILES): CNCC(O)c1ccc(O)c(O)c1 (stereo not drawn) [adrenaline]
- inhibition of aggregation of tau protein [1]: inhibited aggregation of tau protein

Structure (SMILES): NCCc1ccc(O)c(O)c1 [dopamine]
- inhibition of aggregation of tau protein [1]: inhibited aggregation of tau protein

Structure (SMILES): CC(C)NCC(O)c1ccc(O)c(O)c1 (stereo not drawn) [[^11C] isoproterenol, [2-^11C] isoproterenol]
- radiochemical purity after 60 minutes ([3]; solution after HPLC fractionation, absence of addition of tartaric acid, 60 minutes after isolation): 84%
- radiochemical purity immediately after isolation ([3]; solution after HPLC fractionation, absence of addition of tartaric acid, immediately after isolation): 96%
- drop in radiochemical purity after 60 minutes ([3]; tartaric acid added, 60 minutes after isolation): no drop in radiochemical purity was observed
